Reference: PubChem BioAssay (NCI)
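Five compound concentrations were applied to cells in 96-well plates for 48 hours; endpoints were derived by simple linear interpolation of the resulting dose-response curve. GI50 is the concentration that inhibits growth by half. TGI: concentration producing complete growth inhibition.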

Experiments:
Assay in all cases: NCI anticancer screen, dose series, 48 h
A549 NSCLC = test system: A549 NSCLC
CCRF-CEM leukemia = test system: CCRF-CEM leukemia
HOP-92 NSCLC = test system: HOP-92 NSCLC
M14 melanoma = test system: M14 melanoma
MALME-3M melanoma = test system: MALME-3M melanoma
MOLT-4 leukemia = test system: MOLT-4 leukemia
OVCAR-3 ovarian = test system: OVCAR-3 ovarian
SN12C renal = test system: SN12C renal
T-47D breast = test system: T-47D breast
TK-10 renal = test system: TK-10 renal

SMILES	GI50 (A549 NSCLC) [µM]	TGI (A549 NSCLC) [µM]	GI50 (CCRF-CEM leukemia) [µM]	TGI (CCRF-CEM leukemia) [µM]	GI50 (HOP-92 NSCLC) [µM]	TGI (HOP-92 NSCLC) [µM]	GI50 (M14 melanoma) [µM]	TGI (M14 melanoma) [µM]	GI50 (MALME-3M melanoma) [µM]	TGI (MALME-3M melanoma) [µM]	GI50 (MOLT-4 leukemia) [µM]	TGI (MOLT-4 leukemia) [µM]	GI50 (OVCAR-3 ovarian) [µM]	TGI (OVCAR-3 ovarian) [µM]	GI50 (SN12C renal) [µM]	TGI (SN12C renal) [µM]	GI50 (T-47D breast) [µM]	TGI (T-47D breast) [µM]	GI50 (TK-10 renal) [µM]	TGI (TK-10 renal) [µM]
COC(=N)c1c(N)[n+]([O-])c2ccc(F)cc2[n+]1[O-]	> 100	> 100	> 100	> 100	78.8	> 100	> 100	> 100	66.3	> 100	> 100	> 100	> 100	> 100	> 100	> 100	> 100	> 100	> 100	> 100
COc1cc(OC)c(C(=O)/C=C/c2cccc(C#N)c2)c(OC)c1	1.43	6.1	1.03	> 50	0.701	3.26	0.978	4.68	1.76	8.13	1.13	> 50	1.75	6.74	1.5	7.1	1.17	5.53	1.63	5.52
O=[N+]([O-])c1ccc(N2CCC(CCCC3CCN(c4ccc([N+](=O)[O-])cc4[N+](=O)[O-])CC3)CC2)c([N+](=O)[O-])c1		31.8		35.9		26.4		26.7		42.4		53.2		34.5		> 100		29.2		32.7
COc1cc(/C=C/C(=O)c2ccc(F)cc2)ccc1OCCCN1CCN(CC(=O)Nc2ccc(Cl)cc2C(=O)c2ccccc2Cl)CC1	15.9	> 100	2.65	9.3	1.38	10.3	3.4	13.3	4.23	15.7	3.23	> 100	11.3	27.2	12.7	44.3	21.4	> 100	10.4	26.1
O=[N+]([O-])c1cc(Cl)cnc1Br		8.26		19.6		25.4		16.3		49.7		4.52		6.2		7.82		> 100		12.4
COC(=O)C1=C(C)NC(C)=C(C(=O)OCC(C)C)C1c1ccccc1[N+](=O)[O-] (stereo not given)	4.52	18.9	2.45	11.3	4.57	19.8	2.9	8.21	4.47	17.2	3.31	18.9	6.35	19.6	4.15	19.8	3.9	16.4	4.11	13
NCCN.O=C([O-])CN1CCOCC1.[OH-].[Pt+4]	> 100	> 100	> 100	> 100	> 100	> 100	> 100	> 100	> 100	> 100	> 100	> 100	> 100	> 100	> 100	> 100	> 100	> 100	> 100	> 100
